According to patent US9597342B2 (UWM Research Foundation, Inc., priority 2011, dated 2017):

How the values were obtained:
[1] = In vitro metabolic stability using human liver microsomes
Procedure: The metabolic stability of 15 GABAA receptor ligands using human liver microsomes was studied. The test articles were incubated at two concentrations (1 and 10 μM) and aliquots (100 μl) were removed at various time points (0, 15, 30 and 60 minutes), and analyzed by LC-MS/MS.
(§1) The test articles were incubated at two concentrations (1 and 10 μM) in 96-well plate format with active or heat-inactivated human liver microsomes and cofactors. Aliquots were removed at 0, 15, 30 and 60 minutes and mixed with acetonitrile containing internal standard for analysis. Samples were extracted and assayed using a liquid chromatography/tandem mass spectrometry (LC-MS/MS) analytical method.
Pooled human liver microsomes (Lot #38289, pool of 150 different male and female donor livers) were obtained from BD Biosciences Corporation (Woburn, Mass.). Microsomes were stored at ˜−135° C. until use.
(§2) The test articles (1 and 10 μM) were incubated with human liver microsomes (0.5 mg protein/ml) and appropriate cofactors (2.5 mM NADPH and 3.3 mM magnesium chloride) in 100 mM phosphate buffer, pH 7.4 (0.1% final DMSO), in a 37° C. water bath. Incubations with all compounds were initiated with the addition of microsomes. At selected time points (0, 15, 30 and 60 min), a single 100 μl aliquot was removed from each sample and mixed with 200 μl of chilled acetonitrile containing internal standard. Following brief vortexing and centrifugation, the samples were further diluted into a 96-well plate for subsequent LC-MS/MS analysis. All samples were assayed in duplicate.
(§3) Experimental controls consisted of: a) incubation of all components except test article for 0 and 60 min, b) incubation of midazolam (positive control) at 10 μM for 0, 15, 30 and 60 min, and c) incubation of 1 and 10 μM test article and 10 μM midazolam with heat-inactivated microsomes (0.5 mg protein/ml) for 0 and 60 min. All controls were assayed in duplicate.
Samples were analyzed by LC-MS/MS in multiple reaction monitoring mode using positive-ion electrospray ionization. The details of the LC-MS/MS method can be provided upon request.
(§4) Data from the metabolic stability assays were transferred to and processed in a Microsoft Excel spreadsheet. To determine metabolic stability, the percent remaining at each time point was calculated by dividing the peak area ratio of test article/internal standard at each time point by the peak area ratio at 0 min multiplied by 100.

[2] = Incubation with heat-inactivated human liver microsomes (stability control); details: 60 min
Procedure: as §1, §2, §3, §4

Molecule `O=C(OCCCCOC(=O)c1ncn2c1[C@@H]1CCCN1C(=O)c1cc(Br)ccc1-2)c1ncn2c1C1CCCN1C(=O)c1cc(Br)ccc1-2` (some centres unmarked) has a melting point of 166 to 171 °C.
Molecule `O=C(OCCCCCOC(=O)c1ncn2c1[C@@H]1CCCN1C(=O)c1cc(Br)ccc1-2)c1ncn2c1C1CCCN1C(=O)c1cc(Br)ccc1-2` (some centres unmarked) has a melting point of 157 to 161 °C.
With `C#Cc1ccc2c(c1)C(c1ccccc1)=NCc1c(C(=O)OCCCOC(=O)c3ncn4c3CN(C)C(=O)c3cc(Cl)ccc3-4)ncn1-2` the “Mean % Remaining vs T = 0 min, Human Liver Microsomes” value ([1]; 1 μM, 15 min) was 87.3%, the “Mean % Remaining vs T = 0 min, Human Liver Microsomes” value ([1]; 1 μM, 30 min) was 39.4% and the “Mean % Remaining vs T = 0 min, Human Liver Microsomes” value ([1]; 10 μM, 15 min) was 107%. For the same molecule, the “Mean % Remaining vs T = 0 min, Human Liver Microsomes” value ([1]; 10 μM, 30 min) was 104%, the “Mean % Remaining vs T = 0 min, Human Liver Microsomes” value ([1]; 10 μM, 60 min) was 82.8% and the “Mean % Remaining vs T = 0 min, with HI (Heat Inactivated) Microsomes” value (shortened to “Mean % Remaining vs T = 0 min, with HI”) ([2]; 1 μM) was 141%. The “Mean % Remaining vs T = 0 min, with HI” value ([2]; 10 μM) was 114% and the melting point was 179 to 184 °C.
`C#Cc1ccc2c(c1)C(=O)N1CCCC1c1c(C(=O)OCCCOC(=O)c3ncn4c3CN(C)C(=O)c3cc(Cl)ccc3-4)ncn1-2` (centres unmarked) showed a melting point of 174 to 176 °C.
Molecule `C#Cc1ccc2c(c1)C(=O)N1CCCC1c1c(C(=O)N3CCN(C(=O)c4ncn5c4[C@@H]4CCCN4C(=O)c4cc(C#C)ccc4-5)CC3)ncn1-2` (some centres unmarked) has a melting point of 206 to 211 °C.
Molecule `C#Cc1ccc2c(c1)C(c1ccccc1)=NCc1c(C(=O)NC)ncn1-2` has a melting point of 237 to 238 °C.
In the case of `C#Cc1ccc2c(c1)C(c1ccccc1F)=N[C@@H](C)c1c(C(=O)OCCCCCOC(=O)c3ncn4c3CN(C)C(=O)c3cc(Cl)ccc3-4)ncn1-2`, the melting point is reported as 157 to 162 °C (dec.).
With `C#Cc1ccc2c(c1)C(c1ccccc1F)=N[C@@H](C)c1c(C(=O)OCCCCOC(=O)c3ncn4c3[C@H](C)N=C(c3ccccc3F)c3cc(C#C)ccc3-4)ncn1-2` the melting point was 158 to 160 °C.
With `C#Cc1ccc2c(c1)C(c1ccccc1F)=N[C@@H](C)c1c(C(=O)OCCCCCOC(=O)c3ncn4c3[C@H](C)N=C(c3ccccc3F)c3cc(C#C)ccc3-4)ncn1-2` the melting point was 150 to 155 °C.
With `C#Cc1ccc2c(c1)C(c1ccccc1F)=N[C@@H](C)c1c(C(=O)N3CCN(C(=O)c4ncn5c4[C@H](C)N=C(c4ccccc4F)c4cc(C#C)ccc4-5)CC3)ncn1-2` the melting point was 180 to 190 °C.
In the case of `C#Cc1ccc2c(c1)C(c1ccccc1)=NCc1c(C(=O)OCCCCCOC(=O)c3ncn4c3CN(C)C(=O)c3cc(Cl)ccc3-4)ncn1-2`, the melting point is reported as 155 to 160 °C (dec.).
`C#Cc1ccc2c(c1)C(c1ccccc1F)=NCc1c(C(=O)OCCCCCOC(=O)c3ncn4c3CN(C)C(=O)c3cc(Cl)ccc3-4)ncn1-2` gave a melting point of 125 to 130 °C.
Molecule `C#Cc1ccc2c(c1)C(c1ccccc1)=NCc1c(C(=O)OCCCCCOC(=O)c3ncn4c3CN=C(c3ccccc3F)c3cc(C#C)ccc3-4)ncn1-2` has a melting point of 145 to 150 °C.
In the case of `CN1Cc2c(C(=O)OCCCCOC(=O)c3ncn4c3CN(C)C(=O)c3cc(Cl)ccc3-4)ncn2-c2ccc(Cl)cc2C1=O`, the melting point is reported as 308 to 312 °C.
`CN1Cc2c(C(=O)OCCCCCOC(=O)c3ncn4c3CN(C)C(=O)c3cc(Cl)ccc3-4)ncn2-c2ccc(Cl)cc2C1=O` showed a melting point of 146 to 152 °C.
Work on `CN1Cc2c(C(=O)N3CCN(C(=O)c4ncn5c4CN(C)C(=O)c4cc(Cl)ccc4-5)CC3)ncn2-c2ccc(Cl)cc2C1=O` yielded a melting point of 367 to 374 °C.
In the case of `C#Cc1ccc2c(c1)C(c1ccccc1F)=NCc1c(C(=O)NC)ncn1-2` [HJ-I-037, 8-Ethynyl-N-methyl-6-(2-fluorophenyl)-4H-benzo[f]imidazo[1,5-a][1,4]diazepine-3-carboxamide], the “Mean % Remaining vs T = 0 min, Human Liver Microsomes” value ([1]; 1 μM, 15 min) is reported as 97.7%, the “Mean % Remaining vs T = 0 min, Human Liver Microsomes” value ([1]; 1 μM, 30 min) is reported as 99.5% and the “Mean % Remaining vs T = 0 min, Human Liver Microsomes” value ([1]; 1 μM, 60 min) is reported as 92.7%. The “Mean % Remaining vs T = 0 min, Human Liver Microsomes” value ([1]; 10 μM, 15 min) was 96.8%, the “Mean % Remaining vs T = 0 min, Human Liver Microsomes” value ([1]; 10 μM, 30 min) was 103% and the “Mean % Remaining vs T = 0 min, Human Liver Microsomes” value ([1]; 10 μM, 60 min) was 103%. For the same molecule, the “Mean % Remaining vs T = 0 min, with HI” value ([2]; 1 μM) was 117%, the “Mean % Remaining vs T = 0 min, with HI” value ([2]; 10 μM) was 108% and the melting point was 235 to 236 °C.
With `C#Cc1ccc2c(c1)C(c1ccccn1)=NCc1c(C(=O)NC)ncn1-2` [HJ-I-40, 8-Ethynyl-N-methyl-6-(pyridine-2-yl)-4H-benzo[f]imidazo[1,5-a][1,4]diazepine-3-carboxamide] the “Mean % Remaining vs T = 0 min, Human Liver Microsomes” value ([1]; 1 μM, 15 min) was 109%, the “Mean % Remaining vs T = 0 min, Human Liver Microsomes” value ([1]; 1 μM, 30 min) was 126% and the “Mean % Remaining vs T = 0 min, Human Liver Microsomes” value ([1]; 1 μM, 60 min) was 136%. For the same molecule, the “Mean % Remaining vs T = 0 min, Human Liver Microsomes” value ([1]; 10 μM, 15 min) was 104%, the “Mean % Remaining vs T = 0 min, Human Liver Microsomes” value ([1]; 10 μM, 30 min) was 106% and the “Mean % Remaining vs T = 0 min, Human Liver Microsomes” value ([1]; 10 μM, 60 min) was 110%. For the same molecule, the “Mean % Remaining vs T = 0 min, with HI” value ([2]; 1 μM) was 110%, the “Mean % Remaining vs T = 0 min, with HI” value ([2]; 10 μM) was 110% and the melting point was 215 to 216 °C.
For `C#Cc1ccc2c(c1)C(c1ccccc1)=NCc1c(C(=O)OCC)ncn1-2` [XHe-II-053], the “Mean % Remaining vs T = 0 min, Human Liver Microsomes” value ([1]; 1 μM, 15 min) was 41.4%, the “Mean % Remaining vs T = 0 min, Human Liver Microsomes” value ([1]; 1 μM, 30 min) was 11.1% and the “Mean % Remaining vs T = 0 min, Human Liver Microsomes” value ([1]; 1 μM, 60 min) was 1.46%. For the same molecule, the “Mean % Remaining vs T = 0 min, Human Liver Microsomes” value ([1]; 10 μM, 15 min) was 47.6%, the “Mean % Remaining vs T = 0 min, Human Liver Microsomes” value ([1]; 10 μM, 30 min) was 13.9% and the “Mean % Remaining vs T = 0 min, Human Liver Microsomes” value ([1]; 10 μM, 60 min) was 1.74%. For the same molecule, the “Mean % Remaining vs T = 0 min, with HI” value ([2]; 1 μM) was 107% and the “Mean % Remaining vs T = 0 min, with HI” value ([2]; 10 μM) was 102%.
With `C#Cc1ccc2c(c1)C(c1ccccn1)=NCc1c(-c3nc(C(C)C)no3)ncn1-2` [ZJW-II-040, 5-(8-Ethynyl-6-(pyridin-2-yl)-4H-Benzo-[f]-Imidazo-[1,5-a]-[1,4]-Diazepine-3-yl)-3-Isopropyl-1,2,4-Oxadiazole] the “Mean % Remaining vs T = 0 min, Human Liver Microsomes” value ([1]; 1 μM, 15 min) was 97.8%, the “Mean % Remaining vs T = 0 min, Human Liver Microsomes” value ([1]; 1 μM, 30 min) was 98.7% and the “Mean % Remaining vs T = 0 min, Human Liver Microsomes” value ([1]; 1 μM, 60 min) was 89.4%. For the same molecule, the “Mean % Remaining vs T = 0 min, Human Liver Microsomes” value ([1]; 10 μM, 15 min) was 106%, the “Mean % Remaining vs T = 0 min, Human Liver Microsomes” value ([1]; 10 μM, 30 min) was 99.3% and the “Mean % Remaining vs T = 0 min, Human Liver Microsomes” value ([1]; 10 μM, 60 min) was 95.1%. The “Mean % Remaining vs T = 0 min, with HI” value ([2]; 1 μM) was 113% and the “Mean % Remaining vs T = 0 min, with HI” value ([2]; 10 μM) was 92.0%.
In the case of `C#Cc1ccc2c(c1)C(c1ccccn1)=NCc1c(C(=O)SC)ncn1-2` [ZJW-II-065, S-Methyl-8-Ethynyl-Methyl-6-(Pyridine-2-yl)-4H-Benzo-[f]-Imidazo-[1,5-a]-[1,4]-Diazepine-3-Carbothioate], the “Mean % Remaining vs T = 0 min, Human Liver Microsomes” value ([1]; 1 μM, 15 min) is reported as 98.4%, the “Mean % Remaining vs T = 0 min, Human Liver Microsomes” value ([1]; 1 μM, 30 min) is reported as 97.0% and the “Mean % Remaining vs T = 0 min, Human Liver Microsomes” value ([1]; 1 μM, 60 min) is reported as 82.5%. The “Mean % Remaining vs T = 0 min, Human Liver Microsomes” value ([1]; 10 μM, 15 min) was 111%, the “Mean % Remaining vs T = 0 min, Human Liver Microsomes” value ([1]; 10 μM, 30 min) was 106% and the “Mean % Remaining vs T = 0 min, Human Liver Microsomes” value ([1]; 10 μM, 60 min) was 95.6%. For the same molecule, the “Mean % Remaining vs T = 0 min, with HI” value ([2]; 1 μM) was 105% and the “Mean % Remaining vs T = 0 min, with HI” value ([2]; 10 μM) was 110%.
